Results published in article PMC9434702 (Journal of medicinal chemistry, 2022).
One block for each compound: values may come before it.

Columns and labels:
mGluR2 [1] = target: mGluR2 (Rattus norvegicus, UniProt P31421); test: Pretreatment; format: in vivo, Sprague–Dawley rats
[2] = rat; cited from earlier work
mGluR2 [3] = target: T1, mGluR2 (Homo sapiens, UniProt Q14416); conditions: mGluR2 NAM; cited from earlier work
Rat plasma stability = format: in vitro ADME; conditions: 37 °C, peak area at 60 min vs 0 min
recombinant human Pgp = recombinant human Pgp (Homo sapiens, UniProt P08183); test: Pgp-Glo assay; format: in vitro ADME; conditions: 100 μM compound; change relative to Na3VO4 samples = Pgp ATPase activity
recombinant human Pgp, sequence (P08183 whole entry): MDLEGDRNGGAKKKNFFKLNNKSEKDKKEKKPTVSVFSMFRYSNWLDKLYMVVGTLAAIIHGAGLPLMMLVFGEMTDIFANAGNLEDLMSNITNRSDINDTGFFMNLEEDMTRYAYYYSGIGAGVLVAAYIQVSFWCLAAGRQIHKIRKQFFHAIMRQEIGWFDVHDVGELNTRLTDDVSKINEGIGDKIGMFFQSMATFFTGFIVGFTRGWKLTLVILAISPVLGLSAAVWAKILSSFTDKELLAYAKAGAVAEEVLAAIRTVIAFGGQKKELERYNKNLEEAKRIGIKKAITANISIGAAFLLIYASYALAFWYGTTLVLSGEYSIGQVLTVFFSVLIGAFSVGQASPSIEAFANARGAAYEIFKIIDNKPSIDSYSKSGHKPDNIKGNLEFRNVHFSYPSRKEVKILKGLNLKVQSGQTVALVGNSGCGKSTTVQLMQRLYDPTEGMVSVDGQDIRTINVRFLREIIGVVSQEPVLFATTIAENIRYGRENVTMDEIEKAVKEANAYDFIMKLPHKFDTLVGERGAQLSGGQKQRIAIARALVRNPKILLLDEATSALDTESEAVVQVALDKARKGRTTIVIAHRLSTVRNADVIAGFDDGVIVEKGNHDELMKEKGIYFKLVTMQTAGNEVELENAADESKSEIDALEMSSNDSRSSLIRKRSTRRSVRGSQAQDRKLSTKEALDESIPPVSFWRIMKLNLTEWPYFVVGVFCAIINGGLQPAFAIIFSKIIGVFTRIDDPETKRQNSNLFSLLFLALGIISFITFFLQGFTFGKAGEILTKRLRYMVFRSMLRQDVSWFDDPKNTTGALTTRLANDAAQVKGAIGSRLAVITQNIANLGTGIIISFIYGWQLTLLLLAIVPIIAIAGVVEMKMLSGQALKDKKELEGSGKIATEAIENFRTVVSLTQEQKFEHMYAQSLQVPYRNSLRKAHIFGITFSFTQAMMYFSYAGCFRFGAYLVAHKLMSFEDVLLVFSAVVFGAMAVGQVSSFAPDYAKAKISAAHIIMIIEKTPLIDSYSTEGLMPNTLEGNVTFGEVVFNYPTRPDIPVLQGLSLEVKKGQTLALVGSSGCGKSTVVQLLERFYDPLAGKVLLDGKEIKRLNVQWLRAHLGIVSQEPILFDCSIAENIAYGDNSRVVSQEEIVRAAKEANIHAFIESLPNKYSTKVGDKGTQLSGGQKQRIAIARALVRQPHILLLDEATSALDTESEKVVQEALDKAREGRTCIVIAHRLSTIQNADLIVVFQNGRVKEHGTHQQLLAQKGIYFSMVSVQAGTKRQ

mGluR2 [4] = target: T1, mGluR2
[5] = Rat liver microsome stability; format: in vitro ADME, Sprague–Dawley rat; conditions: NADPH, 37 °C, peak area at 60 min vs 0 min
[6] = rat brain; cited from earlier work
[7] = 0.2 mg/kg iv., 1 min before tracer
[8] = 0.2 mg/kg iv., 20 min before tracer
[9] = 0.5 mg/kg iv., 1 min before tracer

T1 sequence (Q14416 19-872): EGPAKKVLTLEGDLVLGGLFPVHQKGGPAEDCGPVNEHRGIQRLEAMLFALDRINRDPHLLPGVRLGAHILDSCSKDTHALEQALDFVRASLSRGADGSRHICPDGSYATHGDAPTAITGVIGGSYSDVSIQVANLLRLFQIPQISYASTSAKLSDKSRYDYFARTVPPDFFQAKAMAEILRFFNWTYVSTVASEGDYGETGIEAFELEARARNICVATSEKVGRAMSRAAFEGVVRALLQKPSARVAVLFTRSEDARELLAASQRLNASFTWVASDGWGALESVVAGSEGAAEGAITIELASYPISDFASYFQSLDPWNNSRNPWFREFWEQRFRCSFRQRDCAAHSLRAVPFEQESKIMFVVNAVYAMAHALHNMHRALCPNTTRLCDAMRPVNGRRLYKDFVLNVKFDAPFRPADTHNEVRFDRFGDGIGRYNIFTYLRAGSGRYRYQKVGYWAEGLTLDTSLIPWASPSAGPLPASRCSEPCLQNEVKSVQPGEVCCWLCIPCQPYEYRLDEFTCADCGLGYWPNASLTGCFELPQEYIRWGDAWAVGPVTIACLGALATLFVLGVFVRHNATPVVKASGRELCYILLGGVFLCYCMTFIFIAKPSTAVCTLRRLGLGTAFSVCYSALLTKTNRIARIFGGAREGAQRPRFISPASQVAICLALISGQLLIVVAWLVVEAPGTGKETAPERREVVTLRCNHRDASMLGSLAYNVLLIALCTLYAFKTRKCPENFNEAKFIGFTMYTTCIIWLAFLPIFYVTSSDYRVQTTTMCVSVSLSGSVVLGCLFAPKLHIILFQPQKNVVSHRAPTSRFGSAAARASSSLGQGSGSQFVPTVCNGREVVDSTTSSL
mGluR2 (Rattus norvegicus, UniProt P31421), sequence (P31421 19-872): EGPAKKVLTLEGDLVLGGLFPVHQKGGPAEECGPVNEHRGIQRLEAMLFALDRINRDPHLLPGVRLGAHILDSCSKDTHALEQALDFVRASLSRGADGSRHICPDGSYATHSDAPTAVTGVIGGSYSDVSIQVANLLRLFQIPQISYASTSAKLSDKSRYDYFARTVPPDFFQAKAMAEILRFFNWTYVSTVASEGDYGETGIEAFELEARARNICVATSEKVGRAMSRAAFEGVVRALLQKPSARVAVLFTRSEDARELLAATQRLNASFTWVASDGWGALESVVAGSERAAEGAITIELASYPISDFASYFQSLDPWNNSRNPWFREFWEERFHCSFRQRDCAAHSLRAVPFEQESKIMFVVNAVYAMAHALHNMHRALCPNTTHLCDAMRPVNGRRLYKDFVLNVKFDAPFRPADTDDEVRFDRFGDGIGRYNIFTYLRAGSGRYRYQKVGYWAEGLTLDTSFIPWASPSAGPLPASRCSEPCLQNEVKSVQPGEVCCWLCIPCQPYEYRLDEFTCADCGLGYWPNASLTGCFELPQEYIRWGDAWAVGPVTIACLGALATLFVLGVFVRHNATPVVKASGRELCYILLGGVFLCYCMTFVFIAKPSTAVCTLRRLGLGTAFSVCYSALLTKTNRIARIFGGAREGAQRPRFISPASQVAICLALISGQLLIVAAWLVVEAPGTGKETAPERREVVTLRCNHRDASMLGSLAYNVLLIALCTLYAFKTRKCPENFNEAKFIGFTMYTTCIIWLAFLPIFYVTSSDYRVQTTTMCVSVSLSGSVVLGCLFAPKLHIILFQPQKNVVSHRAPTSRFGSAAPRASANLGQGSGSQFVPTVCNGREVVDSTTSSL

- decrease of [11C]13 radioactivity accumulation, among ROIs (mGluR2 [1]; [7]): 41.7 ± 1.1%
- decrease of [11C]13 radioactivity accumulation, cerebellum (least) (mGluR2 [1]; [7]): 39.6%
- decrease of [11C]13 radioactivity accumulation, hypothalamus (highest) (mGluR2 [1]; [7]): 42.6%
- decrease of [11C]13 radioactivity accumulation, average (mGluR2 [1]; [8]): 12.7 ± 1.7%
- decrease of [11C]13 radioactivity accumulation, cerebellum (highest) (mGluR2 [1]; [8]): 15.2%
- decrease of [11C]13 radioactivity accumulation, striatum (lowest) (mGluR2 [1]; [8]): 11.1%
SMILES: N#Cc1cc(C2=Nc3ccc(Br)cc3NC(=O)C2)ccn1 [compound 26]

- plasma stability (Rat plasma stability): > 92%
- luminescence change (p/s) (recombinant human Pgp): 3.07 × 10^7 p/s
- agonist activity at mGluR2 (mGluR2 [4]; cells induced with 1 μg/mL tetracycline, no glutamate): no agonist activity was observed
- concentration at which potent NAM activity begins (mGluR2 [4]; in the presence of increasing concentrations of L-glutamate): ~30 nM
- microsome stability [5]: > 92%
SMILES: CC1(C)CCc2c(-c3ccc(F)cc3F)cc(C(N)=O)nc2O1 [compound 12, 5-(2,4-Difluorophenyl)-2,2-dimethyl-3,4-dihydro-2H-pyrano[2,3-b]pyridine-7-carboxamide]

The remaining lines, values behind:

SMILES: Cn1ccc(COc2cnc(C(N)=O)cc2-c2ccc(F)cc2)n1 [compound 9]
- half-life (t1/2) [2]: 20 min
- plasma clearance (CLp) [2]: 118 mL/min/kg
- IC50 (mGluR2 [3]): 78 nM
- decrease of [11C]13 radioactivity accumulation, average across ROIs (mGluR2 [1]; [9]): 22.4 ± 7.3%
- decrease of [11C]13 radioactivity accumulation, cortex (highest) (mGluR2 [1]; [9]): 38.5%
- decrease of [11C]13 radioactivity accumulation, thalamus (least) (mGluR2 [1]; [9]): 17.1%
- decrease of [11C]13 radioactivity accumulation, total average (mGluR2 [1]; 0.5 mg/kg iv., 20 min before tracer): 14.5 ± 1.5%

SMILES: COc1ccc(-c2cc(C(N)=O)nc3cc(CN4C(=O)CCC4=O)ccc23)c(F)c1 [compound 7]
- SUVmax [6]: 0.3

SMILES: COc1ccc(-c2cc(C(N)=O)nc3c2CCC(C)(C)O3)c(F)c1 [compound 13, 5-(2-Fluoro-4-methoxyphenyl)-2,2-dimethyl-3,4-dihydro-2H-pyrano[2,3-b]pyridine-7-carboxamide]
- plasma stability (Rat plasma stability): 94.5%
- luminescence change (p/s) (recombinant human Pgp): 1.53 × 10^7 p/s
